According to ChEMBL document CHEMBL3885881, “DrugMatrix”:

Species on record: Rattus norvegicus
Test: DrugMatrix - Regimen: Daily Repeat
Type: toxicity, organism-based, Sprague-Dawley
Parameters: regimen Daily Repeat, gender Male, age 6-8 weeks
Settings: in vivo, po, route oral GAVAGE, […]; for ABSOLUTE BASOPHIL / BASOPHIL / ABSOLUTE EOSINOPHIL / ABSOLUTE LYMPHOCYTE / ABSOLUTE MONOCYTE / ABSOLUTE SEGMENTED NEUTROPHIL / EOSINOPHIL / ERYTHROCYTE COUNT / HEMATOCRIT / HEMOGLOBIN / LEUKOCYTE COUNT / LYMPHOCYTE / MEAN CORPUSCULAR HEMOGLOBIN / MEAN CORPUSCULAR HEMOGLOBIN CONCENTRATION / MEAN CORPUSCULAR VOLUME / MONOCYTE / NEUTROPHIL / NUCLEATED RED BLOOD CELLS / PLATELET COUNT: tissue Blood; for ALANINE AMINOTRANSFERASE / ALBUMIN / ALKALINE PHOSPHATASE / ASPARTATE AMINOTRANSFERASE / BLOOD UREA NITROGEN / CARBON DIOXIDE / CHLORIDE / CHOLESTEROL / CREATINE PHOSPHOKINASE / CREATININE / GLUCOSE / LACTATE DEHYDROGENASE / LIPASE / PHOSPHORUS / POTASSIUM / SODIUM / TOTAL BILIRUBIN / TOTAL PROTEIN / URIC ACID: tissue Plasma
[1] = 0 mg/kg, 72 h, dose level Control, time 3 day
[2] = 0 mg/kg, 120 h, dose level Control, time 5 day
[3] = 4 mg/kg, 72 h, dose level Low, time 3 day
[4] = 4 mg/kg, 120 h, dose level Low, time 5 day
[5] = 16 mg/kg, 72 h, dose level High, time 3 day
[6] = 16 mg/kg, 120 h, dose level High, time 5 day

SMILES: O=NN(CCCl)C(=O)NCCCl [CARMUSTINE]
- ABSOLUTE BASOPHIL [1]: 0 CELLS/uL
- BASOPHIL [1]: 0%
- ABSOLUTE BASOPHIL [2]: 0 CELLS/uL
- ABSOLUTE EOSINOPHIL [2]: 0 CELLS/uL
- ABSOLUTE LYMPHOCYTE [2]: 10431 CELLS/uL
- ABSOLUTE MONOCYTE [2]: 90.5 CELLS/uL
- ABSOLUTE SEGMENTED NEUTROPHIL [2]: 1111.83 CELLS/uL
- BASOPHIL [2]: 0%
- EOSINOPHIL [2]: 0%
- ERYTHROCYTE COUNT [2]: 5.51 x10E6/uL
- HEMATOCRIT [2]: 34.67%
- HEMOGLOBIN [2]: 13.5 G/DL
- LEUKOCYTE COUNT [2]: 11.63 x10E3/uL
- LYMPHOCYTE [2]: 89.67%
- MEAN CORPUSCULAR HEMOGLOBIN [2]: 24.5 pg
- MEAN CORPUSCULAR HEMOGLOBIN CONCENTRATION [2]: 38.95 G/DL
- MEAN CORPUSCULAR VOLUME [2]: 62.87 fL
- MONOCYTE [2]: 0.67%
- NEUTROPHIL [2]: 9.67%
- NUCLEATED RED BLOOD CELLS [2]: 0 /100WBC
- PLATELET COUNT [2]: 1052.67 x10E3/uL
- ALANINE AMINOTRANSFERASE [2]: 54.67 u/L
- ALBUMIN [2]: 4.15 G/DL
- ALKALINE PHOSPHATASE [2]: 359.83 u/L
- ASPARTATE AMINOTRANSFERASE [2]: 83 u/L
- BLOOD UREA NITROGEN [2]: 13.5 mg/dL
- CARBON DIOXIDE [2]: 27.17 mmol/L
- CHLORIDE [2]: 98.5 MEQ/L
- CHOLESTEROL [2]: 66.83 mg/dL
- CREATINE PHOSPHOKINASE [2]: 256.17 u/L
- CREATININE [2]: 0.19 mg/dL
- GLUCOSE [2]: 171.33 mg/dL
- LACTATE DEHYDROGENASE [2]: 91.5 u/L
- LIPASE [2]: 10.5 u/L
- PHOSPHORUS [2]: 8.72 mg/dL
- POTASSIUM [2]: 5.34 MEQ/L
- SODIUM [2]: 142.53 MEQ/L
- TOTAL BILIRUBIN [2]: 0.2 mg/dL
- TOTAL PROTEIN [2]: 6.05 G/DL
- URIC ACID [2]: 0.6 mg/dL
- ABSOLUTE BASOPHIL [3]: 0 CELLS/uL
- ABSOLUTE EOSINOPHIL [3]: 0 CELLS/uL
- ABSOLUTE LYMPHOCYTE [3]: 4876.33 CELLS/uL
- ABSOLUTE MONOCYTE [3]: 48 CELLS/uL
- ABSOLUTE SEGMENTED NEUTROPHIL [3]: 442.33 CELLS/uL
- BASOPHIL [3]: 0%
- EOSINOPHIL [3]: 0%
- ERYTHROCYTE COUNT [3]: 5.3 x10E6/uL
- HEMATOCRIT [3]: 33.47%
- HEMOGLOBIN [3]: 13.1 G/DL
- LEUKOCYTE COUNT [3]: 5.37 x10E3/uL
- LYMPHOCYTE [3]: 90.67%
- MEAN CORPUSCULAR HEMOGLOBIN [3]: 24.7 pg
- MEAN CORPUSCULAR HEMOGLOBIN CONCENTRATION [3]: 39.13 G/DL
- MEAN CORPUSCULAR VOLUME [3]: 63.13 fL
- MONOCYTE [3]: 1%
- NEUTROPHIL [3]: 8.33%
- NUCLEATED RED BLOOD CELLS [3]: 0 /100WBC
- PLATELET COUNT [3]: 1176.67 x10E3/uL
- ALANINE AMINOTRANSFERASE [3]: 69.33 u/L
- ALBUMIN [3]: 4.2 G/DL
- ALKALINE PHOSPHATASE [3]: 310 u/L
- ASPARTATE AMINOTRANSFERASE [3]: 124.67 u/L
- BLOOD UREA NITROGEN [3]: 8.33 mg/dL
- CARBON DIOXIDE [3]: 31.67 mmol/L
- CHLORIDE [3]: 102 MEQ/L
- CHOLESTEROL [3]: 70 mg/dL
- CREATINE PHOSPHOKINASE [3]: 196 u/L
- CREATININE [3]: 0.11 mg/dL
- GLUCOSE [3]: 149.33 mg/dL
- LACTATE DEHYDROGENASE [3]: 75.67 u/L
- LIPASE [3]: 45 u/L
- PHOSPHORUS [3]: 9.8 mg/dL
- POTASSIUM [3]: 5.86 MEQ/L
- SODIUM [3]: 147.15 MEQ/L
- TOTAL BILIRUBIN [3]: 0.2 mg/dL
- TOTAL PROTEIN [3]: 5.6 G/DL
- URIC ACID [3]: 0.47 mg/dL
- ABSOLUTE BASOPHIL [4]: 0 CELLS/uL
- ABSOLUTE EOSINOPHIL [4]: 0 CELLS/uL
- ABSOLUTE LYMPHOCYTE [4]: 3763.67 CELLS/uL
- ABSOLUTE MONOCYTE [4]: 27 CELLS/uL
- ABSOLUTE SEGMENTED NEUTROPHIL [4]: 142.67 CELLS/uL
- BASOPHIL [4]: 0%
- EOSINOPHIL [4]: 0%
- ERYTHROCYTE COUNT [4]: 5.76 x10E6/uL
- HEMATOCRIT [4]: 35.3%
- HEMOGLOBIN [4]: 13.53 G/DL
- LEUKOCYTE COUNT [4]: 3.93 x10E3/uL
- LYMPHOCYTE [4]: 95.67%
- MEAN CORPUSCULAR HEMOGLOBIN [4]: 23.5 pg
- MEAN CORPUSCULAR HEMOGLOBIN CONCENTRATION [4]: 38.33 G/DL
- MEAN CORPUSCULAR VOLUME [4]: 61.27 fL
- MONOCYTE [4]: 0.67%
- NEUTROPHIL [4]: 3.67%
- NUCLEATED RED BLOOD CELLS [4]: 0 /100WBC
- PLATELET COUNT [4]: 1079.33 x10E3/uL
- ALANINE AMINOTRANSFERASE [4]: 65 u/L
- ALBUMIN [4]: 4.4 G/DL
- ALKALINE PHOSPHATASE [4]: 287.67 u/L
- ASPARTATE AMINOTRANSFERASE [4]: 91.67 u/L
- BLOOD UREA NITROGEN [4]: 10 mg/dL
- CARBON DIOXIDE [4]: 27.67 mmol/L
- CHLORIDE [4]: 101.33 MEQ/L
- CHOLESTEROL [4]: 66.67 mg/dL
- CREATINE PHOSPHOKINASE [4]: 256.67 u/L
- CREATININE [4]: 0.22 mg/dL
- GLUCOSE [4]: 159.33 mg/dL
- LACTATE DEHYDROGENASE [4]: 67.33 u/L
- LIPASE [4]: 10.67 u/L
- PHOSPHORUS [4]: 8.57 mg/dL
- POTASSIUM [4]: 5.14 MEQ/L
- SODIUM [4]: 148.03 MEQ/L
- TOTAL BILIRUBIN [4]: 0.13 mg/dL
- TOTAL PROTEIN [4]: 6.3 G/DL
- URIC ACID [4]: 0.57 mg/dL
- ABSOLUTE BASOPHIL [5]: 0 CELLS/uL
- ABSOLUTE EOSINOPHIL [5]: 0 CELLS/uL
- BASOPHIL [5]: 0%
- EOSINOPHIL [5]: 0%
- TOTAL PROTEIN [5]: 11.13 G/DL
- ABSOLUTE BASOPHIL [6]: 0 CELLS/uL
- ABSOLUTE EOSINOPHIL [6]: 9 CELLS/uL
- ABSOLUTE LYMPHOCYTE [6]: 2345.67 CELLS/uL
- ABSOLUTE MONOCYTE [6]: 24.67 CELLS/uL
- ABSOLUTE SEGMENTED NEUTROPHIL [6]: 87.33 CELLS/uL
- BASOPHIL [6]: 0%
- EOSINOPHIL [6]: 0.33%
- ERYTHROCYTE COUNT [6]: 6.17 x10E6/uL
- HEMATOCRIT [6]: 38.6%
- HEMOGLOBIN [6]: 14.23 G/DL
- LEUKOCYTE COUNT [6]: 2.47 x10E3/uL
- LYMPHOCYTE [6]: 95%
- MEAN CORPUSCULAR HEMOGLOBIN [6]: 23.1 pg
- MEAN CORPUSCULAR HEMOGLOBIN CONCENTRATION [6]: 36.93 G/DL
- MEAN CORPUSCULAR VOLUME [6]: 62.57 fL
- MONOCYTE [6]: 1%
- NEUTROPHIL [6]: 3.67%
- NUCLEATED RED BLOOD CELLS [6]: 0 /100WBC
- PLATELET COUNT [6]: 1131 x10E3/uL
- ALANINE AMINOTRANSFERASE [6]: 102 u/L
- ALBUMIN [6]: 3.93 G/DL
- ALKALINE PHOSPHATASE [6]: 370.33 u/L
- ASPARTATE AMINOTRANSFERASE [6]: 322 u/L
- BLOOD UREA NITROGEN [6]: 8.33 mg/dL
- CARBON DIOXIDE [6]: 27.67 mmol/L
- CHLORIDE [6]: 98 MEQ/L
- CHOLESTEROL [6]: 235 mg/dL
- CREATINE PHOSPHOKINASE [6]: 236.67 u/L
- CREATININE [6]: 0.21 mg/dL
- GLUCOSE [6]: 146 mg/dL
- LACTATE DEHYDROGENASE [6]: 165.33 u/L
- LIPASE [6]: 12 u/L
- PHOSPHORUS [6]: 9.6 mg/dL
- POTASSIUM [6]: 5.3 MEQ/L
- SODIUM [6]: 146.6 MEQ/L
- TOTAL BILIRUBIN [6]: 1.73 mg/dL
- TOTAL PROTEIN [6]: 6.4 G/DL
- URIC ACID [6]: 0.6 mg/dL
